The IC50 is the concentration needed to halve the response being measured. A lower IC50 goes with greater potency.

In experiment [1] the target is Full-length PRMT5 enzyme co-expressed with MEP50 (Homo sapiens (Human), UniProt O14744). Put plainly: Revised PRMT5 Biochemical Assay. The settings on record: 1 μM peptide substrate, 1 μM S-Adenosyl methionine, 4 hours at 37 degree Celsius, Transcreener EPIGEN fluorescence polarisation. As to the method: Compounds of the invention may be tested for in vitro activity in the following assay: A histone H4 derived peptide is used as substrate (amino acid sequence: […]NH2). Full-length PRMT5 enzyme (NCBI Reference sequence NP_006100.2) was co-expressed with Hiss-MEP50 in insect cells and purified via Nickel immobilized metal affinity and gel filtration chromatography (“the enzyme”).
Full-length PRMT5 enzyme co-expressed with MEP50, sequence (O14744 whole entry): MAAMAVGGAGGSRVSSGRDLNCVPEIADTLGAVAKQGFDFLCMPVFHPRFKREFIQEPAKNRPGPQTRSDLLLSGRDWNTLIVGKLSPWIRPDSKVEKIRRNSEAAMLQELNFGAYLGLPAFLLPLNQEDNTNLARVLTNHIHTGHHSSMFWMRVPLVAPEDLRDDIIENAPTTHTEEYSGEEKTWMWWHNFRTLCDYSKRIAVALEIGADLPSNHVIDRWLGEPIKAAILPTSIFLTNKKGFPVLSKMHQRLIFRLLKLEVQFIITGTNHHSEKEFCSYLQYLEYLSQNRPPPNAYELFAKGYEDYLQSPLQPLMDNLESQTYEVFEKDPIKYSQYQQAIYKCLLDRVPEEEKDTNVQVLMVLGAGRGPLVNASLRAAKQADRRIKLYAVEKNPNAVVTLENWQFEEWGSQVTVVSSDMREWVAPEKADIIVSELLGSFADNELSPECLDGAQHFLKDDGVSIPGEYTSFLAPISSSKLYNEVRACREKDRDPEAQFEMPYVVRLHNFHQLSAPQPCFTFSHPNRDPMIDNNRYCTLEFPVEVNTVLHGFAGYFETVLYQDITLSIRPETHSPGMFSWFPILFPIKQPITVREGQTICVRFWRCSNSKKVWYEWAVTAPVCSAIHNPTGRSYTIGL
Full-length PRMT5 enzyme co-expressed with MEP50, sequence (Q9BQA1 whole entry partner): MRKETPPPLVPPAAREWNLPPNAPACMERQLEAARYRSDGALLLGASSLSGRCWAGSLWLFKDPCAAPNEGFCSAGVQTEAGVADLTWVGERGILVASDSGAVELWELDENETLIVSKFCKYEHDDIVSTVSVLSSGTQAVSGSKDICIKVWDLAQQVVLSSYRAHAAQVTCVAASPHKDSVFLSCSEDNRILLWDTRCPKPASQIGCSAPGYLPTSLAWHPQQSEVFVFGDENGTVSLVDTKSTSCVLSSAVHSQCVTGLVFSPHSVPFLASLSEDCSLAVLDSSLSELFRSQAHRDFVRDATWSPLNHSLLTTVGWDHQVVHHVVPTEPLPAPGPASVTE
The 6 μL reactions are run in Greiner brand black 384-well low volume assay plates. All reactions contained assay buffer (phosphate buffered saline, 0.01% (v/v) Tween-20, 0.01% (w/v) albumin from chicken egg white, 1 mM Dithiothreitol, 1 μM peptide substrate, 1 μM S-Adenosyl methionine, and 15 ng/reaction enzyme, with the enzyme being omitted from negative control reactions. Compounds were added in a volume of 100 nL from dilution series prepared in DMSO, positive and negative control reactions receiving the same volume DMSO without compound. The plates were sealed with adhesive seals and incubated for 4 hours at 37 degree Celsius. Reaction progress was measured using the Transcreener™ EPIGEN methyltransferase assay (BellBrook Labs, Madison, Wis.) as recommended by the manufacturer. To each reaction 2 μL detection mix were added, containing coupling enzymes, fluorescence polarisation tracer, and AMP antibody. Plates were incubated for 90 minutes before being read on a PerkinElmer EnVision™ plate reader in fluorescence polarisation mode. IC50 values were obtained from the raw readings by calculating percent inhibition (% I) for each reaction relative to controls on the same plate (% I=(I−CN)/(CP−CN) where CN/CP are the averages of the negative/positive reactions, respectively), then fitting the % I data vs. compound concentration [I] to % I=(A+((B−A)/(1+((C/[I])^D)))) where A is the lower asymptote, B is the upper asymptote, C is the IC50 value, and D is the slope.

Experiment [2] relates to symmetrical dimethylation of arginine (Histone H4 Arginine 3) in cell line TE11. Put plainly: Revised PRMT5 Biomarker Assay. It counts as cell-based. The settings on record: TE11 cells, 72 hours incubation, anti-Di-Methyl Histone H4 Arginine 3 immunofluorescence, plate-reader based. The method, then: Compounds of the invention may be tested for potency to inhibit symmetrical dimethylation of arginine in the following assay:
The cell line TE11 was seeded at a density of 6,000 cells per well in 96 well optical quality tissue culture plates in DME medium and 10% foetal bovine serum, and allowed to adhere for 5 hours under standard culture conditions (37 degree Celsius, 5% CO2). Compound dilutions prepared in DMSO were added to the medium, with negative control wells reserved for treatment with DMSO only and positive controls receiving a potent PRMT5 inhibitor compound at 1 μM concentration. After incubation for 72 hours, the cells were fixed with 3.7% formaldehyde in PBS for 30 minutes at room temperature, washed with phosphate buffer saline and blocked with Odyssey blocking buffer (LI-COR, Lincoln, Nebr.). Rabbit anti-Di-Methyl Histone H4 Arginine 3 specific antibody (Epigentek) in Odyssey blocking buffer was added and incubated for 14 hours at 4 degree Celsius. After washing, anti-rabbit secondary antibody labelled with Alexa647 dye (LifeTechnologies) and Hoechst 33342 (1 μg/mL, SigmaAldrich) were added for 1 hour incubation. Plates were washed and read on a PerkinElmer Envision 2103 in fluorescence intensity scanning mode (24 scans across the well area). The methylation level information was corrected for the number of cells as expressed by the Hoechst 33342 stain, converted to percent inhibition relative to controls on the same plate and the data fitted against a four-parameter logistic model to determine the 50% inhibitory concentration (IC50 plate-reader based). Alternatively, the plates were imaged on a PerkinElmer Phenix high content imaging platform. Using a Columbus image analysis pipeline, individual nuclei were located by Hoechst 33342 stain and the methylation level was calculated from the Alexa647-related intensity in the same area. The resulting mean intensity per cell was directly converted to percent inhibition as outlined above (IC50, imager based)).

Regarding `O=C(NCCC(O)CN1CCc2ccccc2C1)c1ccc(S(=O)(=O)C(F)(F)F)cc1` (stereo not shown) [Compound 2], the IC50 in experiment [1] was found to be 1.13 µM.

`O=C(NCCC(O)CN1CCc2ccccc2C1)c1ccc([S+]([O-])C(F)(F)F)cc1` (stereo not shown) [Compound 3] came in with a half-maximal inhibitory concentration (IC50) in experiment [1] of 0.925 µM.

As to `CS(=O)(=O)c1ccccc1OCC(=O)NCCC(O)CN1CCc2ccccc2C1` (stereo not shown) [Compound 4], in experiment [1], the IC50 stood at 51.7 µM.

In experiment [1], `O=C(NCCC(O)CN1CCc2ccccc2C1)c1ccc(C(F)(F)F)cc1` (stereo not shown) [Compound 5] came in with an IC50 of 1.33 µM.

As for `O=C(NCCC(O)CN1CCc2ccccc2C1)c1ccc(N2CCCCC2=O)cc1` (stereo not shown) [Compound 6], in experiment [1], the IC50 was determined as 13.1 µM.

Turning to `COc1ccc(-n2cc(C(=O)NCCC(O)CN3CCc4ccccc4C3)cn2)cc1` (stereo not shown) [Compound 7], the IC50 in experiment [1] stood at 1.94 µM.

Take `COc1ccc(-c2cc(C(=O)NCCC(O)CN3CCc4ccccc4C3)on2)cc1` (stereo not shown) [Compound 8]: the IC50 in experiment [1] worked out at 3.09 µM.

Consider `O=C(NCCC(O)CN1CCc2ccccc2C1)c1ccc2oc(=O)[nH]c2c1` (stereo not shown) [Compound 9], for which, in experiment [1], the concentration for half-maximal inhibition (IC50) was determined as 4.35 µM.

In the case of `Cc1nonc1COc1ccc(C(=O)NCCC(O)CN2CCc3ccccc3C2)cc1` (stereo not shown) [Compound 10], the IC50 in experiment [1] turned out to be 3.98 µM.

Consider `O=C(NCCC(O)CN1CCc2ccccc2C1)c1nnc(-c2ccccc2)o1` (stereo not shown) [Compound 11], for which the IC50 in experiment [1] amounted to 39.2 µM.

As for `O=C(NCCC(O)CN1CCc2ccccc2C1)c1ccn(Cc2ccccc2)c(=O)c1` (stereo not shown) [Compound 12], the IC50 in experiment [1] came to 1.59 µM.

`Cc1c(C(=O)NCCC(O)CN2CCc3ccccc3C2)cnn1-c1ccncc1` (stereo not shown) [Compound 13] yielded a 50% inhibitory concentration (IC50) in experiment [1] of 7.09 µM.

As for `O=C(NCCC(O)CN1CCc2ccccc2C1)c1ccc(N2CCOCC2)nc1` (stereo not shown) [Compound 14], half-maximal inhibition in experiment [1] (IC50) was put at 0.91 µM.

`N#Cc1cccc(C(=O)NCCC(O)CN2CCc3ccccc3C2)c1` (stereo not shown) [Compound 16] gave a 50% inhibitory concentration (IC50) in experiment [1] of 13 µM.

Consider `O=C(NCCC(O)CN1CCc2ccccc2C1)c1cccnc1` (stereo not shown) [Compound 17], for which the concentration for half-maximal inhibition (IC50) in experiment [1] was determined as 15 µM.

Consider `O=C(NCCC(O)CN1CCc2ccccc2C1)c1cccc(Cl)c1` (stereo not shown) [Compound 18], for which, in experiment [1], it took 9.79 µM to reach half-maximal inhibition (IC50).

Regarding `O=C(NCCC(O)CN1CCc2ccccc2C1)c1ccc(OC(F)(F)F)cc1` (stereo not shown) [Compound 19], the IC50 in experiment [2] (Homo sapiens, TE-11) was 0.089 µM; in experiment [1], 0.319 µM.

For `O=C(NCCC(O)CN1CCc2ccccc2C1)c1ccc(S(F)(F)(F)(F)F)cc1` (stereo not shown) [Compound 20], the half-maximal inhibitory concentration (IC50) in experiment [2] (Homo sapiens, TE-11) is 0.505 µM; in experiment [1] it was 0.214 µM.

Compound `O=C(NCCC(O)CN1CCc2ccccc2C1)c1ccc(OC(F)F)cc1` (stereo not shown) [Compound 21] registered an IC50 in experiment [1] of 0.415 µM.

As to `CS(=O)(=O)c1ccc(C(=O)NCCC(O)CN2CCc3ccccc3C2)cc1` (stereo not shown) [Compound 22], the midpoint of inhibition in experiment [1], the IC50, lay at 7.02 µM.

In experiment [1], `O=C(NCCC(O)CN1CCc2ccccc2C1)c1ccc2c(c1)OC(F)(F)O2` (stereo not shown) [Compound 23] returned a concentration for half-maximal inhibition (IC50) of 1.69 µM.

Turning to `Cc1cccc(C(=O)NCCC(O)CN2CCc3ccccc3C2)n1` (stereo not shown) [Compound 24], the IC50 in experiment [1] was found to be 25.4 µM.

With `O=C(NCCC(O)CN1CCc2ccccc2C1)c1cccc(-c2ccnnc2)c1` (stereo not shown) [Compound 25], in experiment [1], it took 6.35 µM to reach half-maximal inhibition (IC50).

Compound `C[S+]([O-])c1ccc(C(=O)NCCC(O)CN2CCc3ccccc3C2)cc1` (stereo not shown) [Compound 26] gave a half-inhibitory concentration (IC50) in experiment [1] of 3.75 µM.

In experiment [1], `COc1ccc(C(=O)NCCC(O)CN2CCc3ccccc3C2)cc1-c1cncnc1` (stereo not shown) [Compound 27] yielded a 50% inhibitory concentration (IC50) of 5.62 µM.

Consider `O=C(NCCC(O)CN1CCc2ccccc2C1)c1cnn(-c2ccccn2)c1` (stereo not shown) [Compound 28], for which half-maximal inhibition in experiment [1] (IC50) required 12.3 µM.

In experiment [1], `Cn1ccc(C(=O)NCCC(O)CN2CCc3ccccc3C2)cc1=O` (stereo not shown) [Compound 29] yielded an IC50 of 10.8 µM.

Turning to `O=C(NCCC(O)CN1CCc2ccccc2C1)c1ccc(C(=O)N2CCCC2)cc1` (stereo not shown) [Compound 30], half-maximal inhibition in experiment [1] (IC50) was put at 3.12 µM.

`O=C(NCCC(O)CN1CCc2ccccc2C1)c1ccc(C(=O)N2CCC2)cc1` (stereo not shown) [Compound 31] had an IC50 in experiment [1] of 3.16 µM.

The compound `CN(C)C(=O)c1ccc(C(=O)NCCC(O)CN2CCc3ccccc3C2)cc1` (stereo not shown) [Compound 32] registered a half-inhibitory concentration (IC50) in experiment [1] of 3.54 µM.

`Cc1c(C(=O)NCCC(O)CN2CCc3ccccc3C2)cnn1-c1ccccn1` (stereo not shown) [Compound 33]: in experiment [1], the IC50 was 7.45 µM.

In turn, `O=C(NCCC(O)CN1CCc2ccccc2C1)c1noc(-c2ccccc2)n1` (stereo not shown) [Compound 34] came in with an IC50 in experiment [1] of 56.1 µM.

For the compound `O=C(NCCC(O)CN1CCc2ccccc2C1)c1coc(-c2ccccc2)n1` (stereo not shown) [Compound 35], the midpoint of inhibition in experiment [1], the IC50, lay at 1.21 µM.

Regarding `Cc1nn(C)cc1-c1cc(C(=O)NCCC(O)CN2CCc3ccccc3C2)no1` (stereo not shown) [Compound 36], the concentration for half-maximal inhibition (IC50) in experiment [2] (Homo sapiens, TE-11) stood at 0.023 µM; in experiment [1], 1.2 µM.

For `Cn1cc(-c2cc(C(=O)NCCC(O)CN3CCc4ccccc4C3)no2)cn1` (stereo not shown) [Compound 37], in experiment [1], inhibition was half-maximal at 1.19 µM (IC50).

`O=C(NCCC(O)CN1CCc2ccccc2C1)c1ccnn1-c1cccnc1` (stereo not shown) [Compound 38] yielded a 50% inhibitory concentration (IC50) in experiment [1] of 2.88 µM.

In experiment [1], `Cc1nnc(-c2cccc(C(=O)NCCC(O)CN3CCc4ccccc4C3)c2)o1` (stereo not shown) [Compound 39] showed an IC50 of 1.22 µM.

With `O=C(NCCC(O)CN1CCc2ccccc2C1)c1ccc(-c2ccccc2)cc1` (stereo not shown) [Compound 40], the IC50 stood at 0.048 µM in experiment [2] (Homo sapiens, TE-11) and 0.769 µM in experiment [1].

`O=C(NCCC(O)CN1CCc2ccccc2C1)c1cccc(-c2ccccc2)c1` (stereo not shown) [Compound 41] yielded an IC50 in experiment [1] of 5.29 µM.

In turn, `Cc1nnc(-c2ccc(C(=O)NCCC(O)CN3CCc4ccccc4C3)cc2)o1` (stereo not shown) [Compound 42] displayed a half-inhibitory concentration (IC50) in experiment [1] of 2.83 µM.

`O=C(NCCC(O)CN1CCc2ccccc2C1)c1cncc(Cl)n1` (stereo not shown) [Compound 43]: in experiment [1], the IC50 amounted to 106 µM.

The compound `O=C(NCCC(O)CN1CCc2ccccc2C1)c1ccnc(Cl)c1` (stereo not shown) [Compound 44, 2-Chloro-N-(4-(3,4-dihydroisoquinolin-2(1H)-yl)-3-hydroxybutyl)isonicotinamide] showed a concentration for half-maximal inhibition (IC50) in experiment [1] of 13.7 µM.

On to `O=C(NCCC(O)CN1CCc2ccccc2C1)c1cccc(C(=O)N2CCOCC2)c1` (stereo not shown) [Compound 45, N-(4-(3,4-dihydroisoquinolin-2(1H)-yl)-3-hydroxybutyl)-3-(morpholine-4-carbonyl)benzamide], for which the half-maximal inhibitory concentration (IC50) in experiment [1] came out at 5.23 µM.

As to `CC(=O)N1CCC(Nc2cc(C(=O)NCCC(O)CN3CCc4ccccc4C3)ccn2)CC1` (stereo not shown) [Compound 46], the half-maximal inhibitory concentration (IC50) in experiment [2] worked out at 0.007 µM; in experiment [1], 0.186 µM.

For the origin of these results see patent US10647708B2, “Tetrahydroisoquinoline derived PRMT5-inhibitors” (CTXT PTY LTD, priority 2014, dated 2020).
